Patent publication US20250320206A1, “STAT6 DEGRADERS” (Gilead Sciences, Inc., priority 2024, published 2025)

Columns and labels:
STAT6 = target: T1, STAT6 (Homo sapiens, UniProt P42226); assay: Stat6 Degrader Assay (HiBiT based, HeLa LgBiT clone 4.14); assay type: cell-based; conditions: HeLa LgBiT clone 4.14 HiBiT-STAT6, 4-24 h incubation; values given for compounds with >80% Emax; geometric mean; read-out: STAT6 degradation DC50
T1 construct: These cells express endogenous STAT6; host or cells: HeLa LgBiT clone 4.14
T1 sequence (P42226 1-847): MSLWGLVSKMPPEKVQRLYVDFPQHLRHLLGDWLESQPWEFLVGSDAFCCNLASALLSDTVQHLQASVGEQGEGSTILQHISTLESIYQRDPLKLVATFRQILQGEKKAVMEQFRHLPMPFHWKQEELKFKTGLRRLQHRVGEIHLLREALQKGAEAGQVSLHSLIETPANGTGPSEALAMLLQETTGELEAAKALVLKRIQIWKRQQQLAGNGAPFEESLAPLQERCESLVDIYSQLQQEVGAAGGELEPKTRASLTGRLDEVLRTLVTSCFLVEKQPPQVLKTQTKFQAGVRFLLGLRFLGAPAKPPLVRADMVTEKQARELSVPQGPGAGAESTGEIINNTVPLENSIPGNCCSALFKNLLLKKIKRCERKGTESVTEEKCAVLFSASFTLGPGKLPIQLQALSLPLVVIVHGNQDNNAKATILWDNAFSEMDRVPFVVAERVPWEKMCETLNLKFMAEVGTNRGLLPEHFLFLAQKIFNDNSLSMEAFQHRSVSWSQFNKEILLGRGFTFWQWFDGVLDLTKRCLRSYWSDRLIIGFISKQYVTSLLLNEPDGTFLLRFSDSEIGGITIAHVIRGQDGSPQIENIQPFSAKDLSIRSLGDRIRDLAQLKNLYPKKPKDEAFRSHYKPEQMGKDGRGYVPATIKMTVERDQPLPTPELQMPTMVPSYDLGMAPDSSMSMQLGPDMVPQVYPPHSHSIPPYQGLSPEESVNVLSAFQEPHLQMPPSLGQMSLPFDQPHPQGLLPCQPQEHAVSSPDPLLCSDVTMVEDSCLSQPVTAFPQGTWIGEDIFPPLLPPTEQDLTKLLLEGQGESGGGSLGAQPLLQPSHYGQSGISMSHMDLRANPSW
In short: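 HeLa LgBiT clone 4.14 cells with CRISPR HiBiT-tagged endogenous STAT6, 5000 cells/well, compound dosed then incubated 4-24 h at 37° C, 5% CO2. Nano-Glo substrate added, 0.5 h, luminescence read as non-degraded STAT6. Terfenadine 50 μM (cell kill) defines 100% degradation.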

[1] = system: Eotaxin-3 release in human whole blood stimulated with IL-4; assay: Human Whole Blood Eotaxin-3 Assay (IL-4 stimulated eotaxin-3 release); assay type: cell-based; conditions: IL-4 stimulation, 48 h, values given for compounds with >80% Emax, geometric mean
In short: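 Lithium-heparin human whole blood preincubated 2 h at 37° C with 4-fold serially diluted compounds (0.5% DMSO), then stimulated with recombinant human IL-4 ([…]) for 48 h. Eotaxin-3 (CCL26) in supernatant quantified by MSD immunoassay.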

Compound | DC50 (STAT6) [nM] | EC50 [1] [nM]
CNc1ccn(-c2ccnc3c2cc([C@H](C)N2CC=C(c4c(F)cc(C(=O)N5CCC(CN6CCN(Cc7ccc8c(c7)n(C7CC7)c(=O)n8C7CCC(=O)NC7=O)C[C@@H]6C)CC5)cc4F)CC2)n3C)c(=O)c1 (stereo partly drawn) [Example 3u210, 3-(3-cyclopropyl-5-(((S)-4-((1-(3,5-difluoro-4-(1-((S)-1-(1-methyl-4-(4-(methylamino)-2-oxopyridin-1 (2H)-yl)-1H-pyrrolo[2,3-b]pyridin-2-yl)ethyl)-1,2,3,6-tetrahydropyridin-4-yl)benzoyl)-piperidin-4-yl)methyl)-3-methylpiperazin-1-yl)methyl)-2-oxo-2,3-dihydro-1H-benzo[d]imidazol-1-yl)piperidine-2,6-dione] | 0.5 | 1.1
C[C@H]1CN(Cc2ccc3c(c2)C(C)(C)C(=O)N3C2CCC(=O)NC2=O)CCN1CC1CCN(C(=O)c2ccc(C3CCN([C@@H](C)c4cc5c(-n6ccc7c(c6=O)CCN7)ccnc5n4C)CC3)cc2)CC1 (stereo partly drawn) [Example 3u184, 3-(3,3-dimethyl-5-(((S)-3-methyl-4-((1-(4-(1-((S)-1-(1-methyl-4-(4-oxo-1,2,3,4-tetrahydro-5H-pyrrolo[3,2-c]pyridin-5-yl)-1H-pyrrolo[2,3-b]pyridin-2-yl)ethyl)piperidin-4-yl)benzoyl)-piperidin-4-yl)methyl)piperazin-1-yl)methyl)-2-oxoindolin-1-yl)piperidine-2,6-dione] | 2.4 | 7
CNc1ccn(-c2ccnc3c2cc(CN2CC=C(c4c(C)cc(C(=O)N(C)c5ccc(C6CCN(Cc7ccc8c(c7)C(C)(C)C(=O)N8[C@@H]7CCC(=O)NC7=O)CC6)cc5)cc4F)CC2)n3C)c(=O)c1 (single isomer, unassigned) [Example 3u230] | 0.4 | 2
CNc1cc(=O)n(-c2ccnc3c2cc([C@H](C)N2CC=C(c4c(F)cc(C(=O)N5CCC(CN6CCN(c7ccc8c(c7)C7(CC7)C(=O)N8C7CCC(=O)NC7=O)CC6)CC5)cc4F)CC2)n3C)cc1F (stereo partly drawn) [Example 3u300, 3-(5′-(4-((1-(3,5-difluoro-4-(1-((S)-1-(4-(5-fluoro-4-(methylamino)-2-oxopyridin-1 (2H)-yl)-1-methyl-1H-pyrrolo[2,3-b]pyridin-2-yl)ethyl)-1,2,3,6-tetrahydropyridin-4-yl)benzoyl)-piperidin-4-yl)methyl)piperazin-1-yl)-2′-oxospiro[cyclopropane-1,3′-indolin]-1′-yl)piperidine-2,6-dione] | 13 | 24.1
CNc1ccn(-c2ccnc3c2cc([C@H](C)N2CC=C(c4c(C)cc(C(=O)N5CCC(CN6CCN(Cc7ccc8c(c7)C(C)(C)C(=O)N8[C@@H]7CCC(=O)NC7=O)C[C@@H]6C)CC5)cc4F)CC2)n3C)c(=O)c1 (single isomer, unassigned) [Example 3u177] | 1.8 | 3.1
CNc1cc(=O)n(-c2ccnc3c2cc(CN2CCC(c4c(F)cc(C(=O)N5CCC(CN6CCN(Cc7ccc8c(c7)n(C)c(=O)n8[C@H]7CCC(=O)NC7=O)C[C@@H]6C)CC5)cc4F)CC2)n3C)cc1F (single isomer, unassigned) [Example 3u61] | 1.9 | 1.2
CNc1ccn(-c2ccnc3c2cc(CN2CCC(c4c(F)cc(C(=O)N5CCC(CN6CCN(Cc7cc8c(cc7F)N([C@H]7CCC(=O)NC7=O)C(=O)C87CC7)CC6)CC5)cc4F)CC2)n3C)c(=O)c1 (single isomer, unassigned) [Example 3u43] | 8.5 | 9.1
CNc1cc(=O)n(-c2ccnc3c2cc(CN2CC=C(c4c(F)cc(C(=O)N5CCC(CN6CCN(Cc7ccc8c(c7)C(C)(C)C(=O)N8C7CCC(=O)NC7=O)C[C@@H]6C)CC5)cc4F)CC2)n3C)cc1F (stereo partly drawn) [Example 3u77, 3-(5-(((S)-4-((1-(3,5-difluoro-4-(1-((4-(5-fluoro-4-(methylamino)-2-oxopyridin-1 (2H)-yl)-1-methyl-1H-pyrrolo[2,3-b]pyridin-2-yl)methyl)-1,2,3,6-tetrahydropyridin-4-yl)benzoyl)piperidin-4-yl)methyl)-3-methylpiperazin-1-yl)methyl)-3,3-dimethyl-2-oxoindolin-1-yl)piperidine-2,6-dione] | 16.1 | 24.1
Cc1cc(C(=O)N2CCC(CN3CCN(Cc4cc5c(cc4F)n(C4CCC(=O)NC4=O)c(=O)n5C)CC3)CC2)cc(F)c1C1=CCN([C@@H](C)c2cc3c(-n4ccc5c(c4=O)CCN5)ccnc3n2C)CC1 (stereo partly drawn) [Example 3u74, 3-(6-fluoro-5-((4-((1-(3-fluoro-5-methyl-4-(1-((S)-1-(1-methyl-4-(4-oxo-1,2,3,4-tetrahydro-5H-pyrrolo[3,2-c]pyridin-5-yl)-1H-pyrrolo[2,3-b]pyridin-2-yl)ethyl)-1,2,3,6-tetrahydro-pyridin-4-yl)benzoyl)piperidin-4-yl)methyl)piperazin-1-yl)methyl)-3-methyl-2-oxo-2,3-dihydro-1H-benzo[d]imidazol-1-yl)piperidine-2,6-dione] | 0.6 | 1.1
CNc1cc(=O)n(-c2ccnc3c2cc([C@H](C)N2CC=C(c4c(C)cc(C(=O)N(C)c5ccc(N6CCC(Cc7ccc8c(c7)n(C)c(=O)n8[C@@H]7CCC(=O)NC7=O)CC6)nc5)cc4F)CC2)n3C)cc1F (single isomer, unassigned) [Example 3u243] | 0.3 | 0.4
Cc1cc(C(=O)N2CCC(CN3CCN(Cc4ccc5c(c4)n(C)c(=O)n5C4CCC(=O)NC4=O)C[C@@H]3C)CC2)cc(F)c1C1=CCN([C@@H](C)c2cc3c(-n4cc(F)c5c(c4=O)CCN5)ccnc3n2C)CC1 (stereo partly drawn) [Example 3u109, 3-(5-(((S)-4-((1-(3-fluoro-4-(1-((S)-1-(4-(7-fluoro-4-oxo-1,2,3,4-tetrahydro-5H-pyrrolo[3,2-c]pyridin-5-yl)-1-methyl-1H-pyrrolo[2,3-b]pyridin-2-yl)ethyl)-1,2,3,6-tetrahydropyridin-4-yl)-5-methylbenzoyl)piperidin-4-yl)methyl)-3-methylpiperazin-1-yl)methyl)-3-methyl-2-oxo-2,3-dihydro-1H-benzo[d]imidazol-1-yl)piperidine-2,6-dione] | 1.4 | 2.8
CNc1ccn(-c2ccnc3c2cc([C@H](C)N2CC=C(c4c(C)cc(C(=O)N5CCC(CN6CCN(Cc7cc8c(cc7F)n([C@H]7CCC(=O)NC7=O)c(=O)n8C)C[C@@H]6C)CC5)cc4F)CC2)n3C)c(=O)c1 (single isomer, unassigned) [Example 3u208] | 0.6 | 0.8
CNc1cc(=O)n(-c2ccnc3c2cc(CN2CC=C(c4c(F)cc(C(=O)N5CCC(CN6CCN(Cc7ccc8c(c7)n(C7CC7)c(=O)n8C7CCC(=O)NC7=O)C[C@@H]6C)CC5)cc4F)CC2)n3C)cc1F (stereo partly drawn) [Example 3u213, 3-(3-cyclopropyl-5-(((S)-4-((1-(3,5-difluoro-4-(1-((4-(5-fluoro-4-(methylamino)-2-oxopyridin-1 (2H)-yl)-1-methyl-1H-pyrrolo[2,3-b]pyridin-2-yl)methyl)-1,2,3,6-tetrahydropyridin-4-yl)benzoyl)piperidin-4-yl)methyl)-3-methylpiperazin-1-yl)methyl)-2-oxo-2,3-dihydro-1H-benzo[d]imidazol-1-yl)piperidine-2,6-dione] | 8.6 | 13.2
CNc1cc(=O)n(-c2ccnc3c2cc([C@H](C)N2CC=C(c4c(C)cc(C(=O)N5CCC(CN6CCN(Cc7ccc8c(c7)n(C)c(=O)n8[C@@H]7CCC(=O)NC7=O)CC6)CC5)cc4F)CC2)n3C)cc1F (single isomer, unassigned) [Example 3u15] | 0.8 | 2.2
Cc1cc(C(=O)N2CCC(CN3CCN(Cc4ccc5c(c4)n(C)c(=O)n5C4CCC(=O)NC4=O)C[C@@H]3C)CC2)cc(F)c1C1CCN(Cc2cc3c(-n4ccc5c(c4=O)CCN5)ccnc3n2C)CC1 (stereo partly drawn) [Example 3u39, 3-(5-(((S)-4-((1-(3-fluoro-5-methyl-4-(1-((1-methyl-4-(4-oxo-1,2,3,4-tetrahydro-5H-pyrrolo[3,2-c]pyridin-5-yl)-1H-pyrrolo[2,3-b]pyridin-2-yl)methyl)piperidin-4-yl)benzoyl)piperidin-4-yl)methyl)-3-methylpiperazin-1-yl)methyl)-3-methyl-2-oxo-2,3-dihydro-1H-benzo[d]imidazol-1-yl)piperidine-2,6-dione] | 4.3 | 2.3
